In patent US5582814A, “1-(p-n-butylbenzyl) DTPA for magnetic resonance imaging” (Metasyn, Inc., priority 1994, dated 1996):

What was measured:
[1] = Relaxivity in rat liver cytosol; format: biochemical; conditions: 20 MHz, 37° C.; Gd(III) complexes in rat liver cytosol
Procedure: The relaxivity of the Gd(III) complexes in cytosol was measured at 37 ° C. using a Bruker 20MHz Minispec equipped with a variable temperature probe. The inversion-recovery pulse sequence with 10 data points was used for T1 measurements. 1/T1 relaxation rates of solutions with varying concentrations of the chelates (0.01-0.5 mM) were determined. The limiting slope of the 1/T1 vs concentration plot at low concentrations of the chelates in units of s^-1 mM^-1 was taken as the relaxivity (R1) of the chelate in cytosol.
Higher relaxivity values imply higher binding affinity to cytosolic proteins and/or greater relaxivity when bound.

[2] = 1/T1 relaxation rates of excised rat liver; format: in vivo, Sprague Dawley rat; conditions: 50 μmol/kg tail vein, 20 MHz, 37° C.
Procedure: Rats (approx. 3 per time period) were euthanized by cervical dislocation (while anesthetized by CO2) at 1, 5 and 30 min. post-injection. […] The percentage of the injected dose (% ID) in the liver was determined for each time point and the integrated area under the mean liver % ID time curve (AUC) was calculated.
For the 5 min. time period, the 1/T1 proton relaxation rate of the excised liver was measured at 20MHz and 37° C. as described above. Higher 1/T1 values are associated with greater MRI signal intensity on T1 -weighted images and are due to greater liver uptake of the agent and/or greater relaxivity in the microenvironments of the liver.

[3] = Rat liver uptake of 153Gd-labeled chelates; format: in vivo, Sprague Dawley rat; conditions: 50 μmol/kg tail vein
Procedure: Un-anesthetized adult male Sprague Dawley rats (200-300 g) were injected in the tail vein with 50 μmol/kg of gadolinium chelate labeled with ^153 Gd. Rats (approx. 3 per time period) were euthanized by cervical dislocation (while anesthetized by CO2) at 1, 5 and 30 min. post-injection. The liver was analyzed for ^153 Gd concentration using a gamma counter. The percentage of the injected dose (% ID) in the liver was determined for each time point and the integrated area under the mean liver % ID time curve (AUC) was calculated.

[4] = in vivo
Procedure: Anesthetized (pentobarbital, 35 mg/kg, ip.) adult rabbits (2.5-4 kg) were administered 50 μmol/kg of a ^153 Gd-labeled chelate (approximately30 μCi/kg) via a cannulated marginal ear vein. Rabbits (1 per compound) were positioned supine under a gamma camera set with a photo peak energy of 100 keV +/- 20% and equipped with a low energy parallel hole collimator. Immediately after chelate administration, dynamic planar whole body scintigraphy was performed every five minutes for at least one hour. Images were acquired in a 64×64 matrix, and region of interest (ROI) analysis was performed using the Image 1.52 software package (National Institutes of Health). Percent injected does (% ID) in the liver at 5 min. intervals was calculated by dividing the counts in the liver ROI by the total counts in the body.

[5] = Biliary excretion in monkeys; conditions: monkey, n = 2, 50 μmol/kg iv bolus
Procedure: Two adult male cynomolgus monkeys used for scintigraphic imaging were injected on different days with iv bolus of 50 μmol/kg of the chelates labeled with ^153 Gd (approximately 40 μCi/kg). Following completion of the imaging study, the animals were placed in metabolic cages and their total urine void and excreted feces were measured using a gamma counter at 24 and 48 hr post compound administration.

[6] = Liver and bile specificity relative to structurally similar contrast agents (summary statement); format: in vivo; conditions: relative to structurally similar contrast agents previously disclosed
Excerpt: Thus, this invention provides a method for tissue-specific contrast enhancement of MR images of mammalian organs and tissues. In particular, the method allows for contrast enhancement of MR images of the hepatobiliary system. […] MS-264 can also be used for tissue-specific imaging of tumors and the blood pool.

Cc1ccc(CC(CN(CCN(CC(=O)O)CC(=O)O)CC(=O)O)N(CC(=O)O)CC(=O)O)c(C)c1 (centres unmarked) [1-(2,4-di-Me-benzyl)]
R1 in liver cytosol (relaxivity) [1]: 15.3 s⁻¹ mM⁻¹
1/T1 of excised rat liver 5 min. post-inj. [2]: 10.2 ± 0.6 s⁻¹
Area under the % inj. dose in rat liver vs time curve (AUC) from 0 to 30 min [3]: 404

O=C(O)CN(CCN(CC(=O)O)CC(Cc1ccccc1)N(CC(=O)O)CC(=O)O)CC(=O)O (centres unmarked) [1-(benzyl)]
R1 in liver cytosol (relaxivity) [1]: 11.7 s⁻¹ mM⁻¹
Area under the % inj. dose in rat liver vs time curve (AUC) from 0 to 30 min [3]: 213

CCOc1ccc(C[C@@H](CN(CCN(CC(=O)O)CC(=O)O)CC(=O)O)N(CC(=O)O)CC(=O)O)cc1 [1-(p-ethoxybenzyl)]
R1 in liver cytosol (relaxivity) [1]: 14.4 s⁻¹ mM⁻¹
1/T1 of excised rat liver 5 min. post-inj. [2]: 10.1 ± 1.5 s⁻¹
Area under the % inj. dose in rabbit liver vs time curve (AUC) from 0 to 30 min [4]: 480
Area under the % inj. dose in rat liver vs time curve (AUC) from 0 to 30 min [3]: 408
% of recovered activity in feces (biliary excretion) of monkeys over 48 hr [5]: 35 ± 3%

CCc1ccc(CC(CN(CCN(CC(=O)O)CC(=O)O)CC(=O)O)N(CC(=O)O)CC(=O)O)cc1 (centres unmarked) [1-(p-ethylbenzyl)]
R1 in liver cytosol (relaxivity) [1]: 16.4 s⁻¹ mM⁻¹
1/T1 of excised rat liver 5 min. post-inj. [2]: 12.3 ± 0.9 s⁻¹
Area under the % inj. dose in rabbit liver vs time curve (AUC) from 0 to 30 min [4]: 553
Area under the % inj. dose in rat liver vs time curve (AUC) from 0 to 30 min [3]: 469
% of recovered activity in feces (biliary excretion) of monkeys over 48 hr [5]: 48 ± 10%

CC(C)c1ccc(CC(CN(CCN(CC(=O)O)CC(=O)O)CC(=O)O)N(CC(=O)O)CC(=O)O)cc1 (centres unmarked) [1-(p-isopropylbenzyl)]
R1 in liver cytosol (relaxivity) [1]: 18.7 s⁻¹ mM⁻¹
1/T1 of excised rat liver 5 min. post-inj. [2]: 10.9 ± 1.2 s⁻¹
Area under the % inj. dose in rabbit liver vs time curve (AUC) from 0 to 30 min [4]: 910
Area under the % inj. dose in rat liver vs time curve (AUC) from 0 to 30 min [3]: 400

O=C(O)CN(CCN(CC(=O)O)CC(CCc1ccccc1)N(CC(=O)O)CC(=O)O)CC(=O)O (centres unmarked) [1-(phenylethyl)]
R1 in liver cytosol (relaxivity) [1]: 13.6 s⁻¹ mM⁻¹

O=C(O)CN(CCN(CC(=O)O)CC(=O)O)CCN(CC(=O)O)C(COCc1ccccc1)C(=O)O (centres unmarked) [BOPTA]
R1 in liver cytosol (relaxivity) [1]: 11.3 s⁻¹ mM⁻¹

diethylenetriamine pentaacetic acid [DTPA]
R1 in liver cytosol (relaxivity) [1]: 7.1 s⁻¹ mM⁻¹
1/T1 of excised rat liver 5 min. post-inj. [2]: 4.64 ± 0.16 s⁻¹
Area under the % inj. dose in rat liver vs time curve (AUC) from 0 to 30 min [3]: 35

gadolinium(III)-1-(p-n-butylbenzyl)diethylenetriamine pentaacetate dimeglumine salt [MS-264]
liver and bile specificity [6]: surprisingly superior liver and bile specificity
R1 in liver cytosol (relaxivity) [1]: 23.8 s⁻¹ mM⁻¹
1/T1 of excised rat liver 5 min. post-inj. [2]: 14.6 ± 0.2 s⁻¹
Area under the % inj. dose in rabbit liver vs time curve (AUC) from 0 to 30 min [4]: 1120
Area under the % inj. dose in rat liver vs time curve (AUC) from 0 to 30 min [3]: 491
